Molecules are shown by their SMILES.

As a reminder, the Ki is the equilibrium dissociation constant of an inhibitor or competing ligand from its target.

human recombinant PAK1-KD protein, sequence (Q13153 270-521 limits assumed): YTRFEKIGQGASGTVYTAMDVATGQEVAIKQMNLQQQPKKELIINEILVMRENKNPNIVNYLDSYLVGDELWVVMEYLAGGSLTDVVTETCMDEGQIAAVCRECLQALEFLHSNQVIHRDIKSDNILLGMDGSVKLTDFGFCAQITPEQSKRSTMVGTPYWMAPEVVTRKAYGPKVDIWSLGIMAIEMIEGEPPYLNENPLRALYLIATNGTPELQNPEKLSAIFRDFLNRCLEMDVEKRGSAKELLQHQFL

The assay addresses human recombinant PAK1-KD protein (Homo sapiens, UniProt Q13153). Description: PAK1-KD (Kinase Domain) IC50 Zlyte Assay (FRET peptide substrate phosphorylation). The note with it: Z'-LYTE, Biological Example 1.
On to `CNc1ncc2cc(-c3ccc(-c4cccc(C)n4)cc3C)c(=O)n(CCC3CNCCO3)c2n1` (single isomer, unassigned) [Example I-104, 6-(2-Methyl-4-(6-methylpyridin-2-yl)phenyl)-2-(methylamino)-8-(2-(morpholin-2-yl)ethyl)pyrido[2,3-d]pyrimidin-7(8H)-one], for which the inhibitory constant (Ki) amounted to 2.3 nM.

As to `CNc1ncc2cc(-c3ccc(-c4cccc(C)n4)cc3Cl)c(=O)n(CC3CNCCS3(=O)=O)c2n1` (single isomer, unassigned) [I-197 Isomer B, 6-[2-chloro-4-(6-methyl-2-pyridyl)phenyl]-8-[(1,1-dioxo-1 4-thiazinan-2-yl)methyl]-2-(methylamino)pyrido[2,3-d]pyrimidin-7-one], the inhibitory constant (Ki) is 31.6 nM.

On to `CCNc1ncc2cc(-c3ccc(-c4cncc(C)n4)cc3Cl)c(=O)n(CCN3CCN(C)CC3)c2n1` [Example I-27, 6-(2-Chloro-4-(6-methylpyrazin-2-yl)phenyl)-2-(ethylamino)-8-(2-(4-methylpiperazin-1-yl)ethyl)pyrido[2,3-d]pyrimidin-7(8H)-one], for which the Ki was determined as 47.6 nM.

On to `CCNc1ncc2cc(-c3ccc(-c4cc(C)cnn4)cc3Cl)c(=O)n(C[C@H]3CC[C@H](N)CC3)c2n1` [Example I-77, 8-(((1R,4R)-4-Aminocyclohexyl)methyl)-6-(2-chloro-4-(5-methylpyridazin-3-yl)phenyl)-2-(ethylamino)pyrido[2,3-d]pyrimidin-7(8H)-one], for which the Ki worked out at 30.7 nM.

For `CNc1ncc2cc(-c3ccc(-c4cncc(C)n4)cc3Cl)c(=O)n(CC(=O)N[C@@H]3CCNC3)c2n1` [Example I-151, 2-[6-[2-Chloro-4-(6-methylpyrazin-2-yl)phenyl]-2-(methylamino)-7-oxo-pyrido[2,3-d]pyrimidin-8-yl]-N-[(3R)-pyrrolidin-3-yl]acetamide], the Ki stood at 12.4 nM.

Consider `CNc1ncc2cc(-c3ccc(-c4cccc(C)n4)cc3Cl)c(=O)n(CCC3CNCCO3)c2n1` (single isomer, unassigned) [Example I-125, 6-(2-chloro-4-(6-methylpyridin-2-yl)phenyl)-2-(methylamino)-8-(2-(morpholin-2-yl)ethyl)pyrido[2,3-d]pyrimidin-7(8H)-one], for which the Ki came to 4.7 nM.

For the compound `CCNc1ncc2cc(-c3ccc(-c4cccc(C)n4)cc3Cl)c(=O)n(CC(=O)N3CCNCC3)c2n1` [Example I-34, 6-[2-Chloro-4-(6-methyl-2-pyridyl)phenyl]-2-(ethylamino)-8-(2-oxo-2-piperazin-1-yl-ethyl)pyrido[2,3-d]pyrimidin-7-one], the Ki was 4 nM.

With `CNc1ncc2cc(-c3ccc(-c4cncc(C)n4)cc3Cl)c(=O)n(CCOC3CNC3)c2n1` [Example I-46, 8-[2-(azetidin-3-yloxy)ethyl]-6-[2-chloro-4-(6-methylpyrazin-2-yl)phenyl]-2-(methylamino)pyrido[2,3-d]pyrimidin-7-one], the Ki came out at 13.9 nM.

As for `CCNc1ncc2cc(-c3ccc(-c4cncc(C)n4)cc3Cl)c(=O)n(CC3CCN(CCO)CC3)c2n1` [Example I-39, 6-(2-Chloro-4-(6-methylpyrazin-2-yl)phenyl)-2-(ethylamino)-8-((1-(2-hydroxyethyl)piperidin-4-yl)methyl)pyrido[2,3-d]pyrimidin-7(8H)-one], the inhibition constant Ki is 40 nM.

Consider `CNc1ncc2cc(-c3ccc(-c4cccc(C)n4)cc3Cl)c(=O)n(CS(=O)(=O)N3CCNCC3)c2n1` [Example I-162, 6-[2-chloro-4-(6-methyl-2-pyridyl)phenyl]-2-(methylamino)-8-(piperazin-1-ylsulfonylmethyl)pyrido[2,3-d]pyrimidin-7-one], for which the Ki turned out to be 14.7 nM.

For `CNc1ncc2cc(-c3ccc(-c4cccc(C)n4)cc3Cl)c(=O)n(CCC3CNCCS3(=O)=O)c2n1` (stereo not drawn) [Example I-202, 6-[2-chloro-4-(6-methyl-2-pyridyl)phenyl]-8-[2-(1,1-dioxo-1 4-thiazinan-2-yl)ethyl]-2-(methylamino)pyrido[2,3-d]pyrimidin-7-one], the Ki was found to be 7.1 nM.

On to `CCNc1ncc2cc(-c3ccc(-c4cccc(C)n4)cc3C)c(=O)n(CCOCCN)c2n1` [Example I-76, 8-[2-(2-Aminoethoxy)ethyl]-2-(ethylamino)-6-[2-methyl-4-(6-methyl-2-pyridyl)phenyl]pyrido[2,3-d]pyrimidin-7-one], for which the Ki was determined as 3.3 nM.

Turning to `CCNc1ncc2cc(-c3ccc(-c4cncc(C)n4)cc3Cl)c(=O)n(CCC3CCNC(=O)C3)c2n1` (stereo not drawn) [Example I-53, 6-[2-chloro-4-(6-methylpyrazin-2-yl)phenyl]-2-(ethylamino)-8-[2-(2-oxo-4-piperidyl)ethyl]pyrido[2,3-d]pyrimidin-7-one], the Ki was determined as 96.2 nM.

Regarding `CNc1ncc2cc(-c3ccc(-c4cccc(C)n4)cc3C)c(=O)n(CCC3CNCCO3)c2n1` (single isomer, unassigned) [Example I-110], the Ki came out at 3 nM.

Regarding `CNc1ncc2cc(-c3ccc(-c4cncc(C)n4)cc3Cl)c(=O)n(CC(=O)N(C)C)c2n1` [Example I-86, 2-[6-[2-Chloro-4-(6-methylpyrazin-2-yl)phenyl]-2-(methylamino)-7-oxo-pyrido[2,3-d]pyrimidin-8-yl]-N,N-dimethyl-acetamide], the Ki was 123 nM.

With `Cc1cccc(-c2ccc(-c3cc4cnc(NC5COC5)nc4n(CCC4CNCCO4)c3=O)c(C)c2)n1` (single isomer, unassigned) [Example I-114, 6-(2-methyl-4-(6-methylpyridin-2-yl)phenyl)-8-(2-(morpholin-2-yl)ethyl)-2-(oxetan-3-ylamino)pyrido[2,3-d]pyrimidin-7(8H)-one], the Ki worked out at 0.7 nM.

In the case of `CCNc1ncc2cc(-c3ccc(-c4cncc(C)n4)cc3Cl)c(=O)n(CC(=O)N3CCOCC3)c2n1` [Example I-26, 6-[2-chloro-4-(6-methylpyrazin-2-yl)phenyl]-2-(ethylamino)-8-(2-morpholino-2-oxo-ethyl)pyrido[2,3-d]pyrimidin-7-one], the inhibition constant Ki came to 137 nM.

For the compound `Cc1cncc(-c2ccc(-c3cc4cnc(NC5COC5)nc4n(CCOCCO)c3=O)c(Cl)c2)n1` [Example I-67, 6-[2-Chloro-4-(6-methylpyrazin-2-yl)phenyl]-8-[2-(2-hydroxyethoxy)ethyl]-2-(oxetan-3-ylamino)pyrido[2,3-d]pyrimidin-7-one], the Ki turned out to be 77.8 nM.

With `CCNc1ncc2cc(-c3ccc(-c4cccc(C)n4)cc3C)c(=O)n(CCC3CNCCO3)c2n1` (single isomer, unassigned) [Example I-112, 2-(Ethylamino)-6-(2-methyl-4-(6-methylpyridin-2-yl)phenyl)-8-(2-(morpholin-2-yl)ethyl)pyrido[2,3-d]pyrimidin-7(8H)-one], the Ki is 1 nM.

On to `Cc1cccc(-c2ccc(-c3cc4cnc(NC5COC5)nc4n(CCOCCN)c3=O)c(Cl)c2)n1` [Example I-63, 8-[2-(2-Aminoethoxy)ethyl]-6-[2-chloro-4-(6-methyl-2-pyridyl)phenyl]-2-(oxetan-3-ylamino)pyrido[2,3-d]pyrimidin-7-one], for which the Ki was 0.3 nM.

Regarding `CCNc1ncc2cc(-c3ccc(-c4cncc(C)n4)cc3Cl)c(=O)n(CCC(O)CO)c2n1` (stereo in doubt) [Example I-79, (R)-6-(2-Chloro-4-(6-methylpyrazin-2-yl)phenyl)-8-(3,4-dihydroxybutyl)-2-(ethylamino)pyrido[2,3-d]pyrimidin-7(8H)-one], the inhibitory constant (Ki) was found to be 43.5 nM.

(Values after patent publication US20150031674A1, “SERINE/THREONINE KINASE INHIBITORS” (GENENTECH, INC., priority 2013, published 2015).)
